This note sets out measurements from US7838516B2, “15 β-substituted steroids having selective estrogenic activity” (priority 2004, dated 2010).

Data set [1] deals with Cynomolgus monkey uterine tissue (endometrium). The data set is described as follows: Histopathological evaluation of Cynomolgus monkey uterine tissue after 8 week oral treatment. The conditions noted are these: 8 weeks, average score per category, grades 0-5. In kind it is in vivo. How it is done: Histopathological evaluation of Cynomolgus monkey uterine tissue was performed by a pathologist after an 8 week oral treatment with the test compound in four animals per treatment group. […] The following morphological characteristics were examined in H&E stained sections, based on the uterine phases of the normal menstrual cycle in Cynomolgus monkeys. • A. Follicular phase-like changes: • loose endometrial stroma • straight endometrial glands • hypertrophy of endometrial epithelium • mitotic figures • hypertrophy of myometrium • early angiogenesis (sprouting or early proliferation) • basal secretion • B. Luteal phase-like changes • pseudodecidually enlarged stromal cells • coiling of endometrial glands • late angiogenesis (spiral artery formation) • vacuolation of endometrial epithelium • luminal secretion • C. Ovariectomized or non-stimulated (atrophic) endometrium • compact endometrial stroma • atrophy of endometrial epithelium • atrophy of endometrial glands • atrophy of myometrium The severity of each of these above-mentioned findings was scored using a scale of grading: • grade 0: finding not present • grade 1: minimal, very few, very small • grade 2: slight, few, small • grade 3: moderate, moderate number, moderate size • grade 4: marked, many, large • grade 5: massive, extensive number, extensive size For each animal this grading was done. Then the average score per treatment group was calculated for each characteristic. Finally, an average score per category, atrophic, follicular- or luteal phase-like, was calculated from the average individual characteristics. A favourable endometrial safety profile for a compound is characterized by less compound-induced follicular phase-like activity combined with more luteal phase-like characteristics and/or atrophic endometrium.

Data set [2] concerns the target human estrogen receptor β (hERβ) (Homo sapiens, UniProt Q92731). The data set is described as follows: In vitro bioassay of estrogenic agonistic transactivation in recombinant CHO cells (hERβ, rat oxytocin promoter, luciferase reporter). In kind it is cell-based. How it is done:
(§1) The agonistic activity of compounds on the estrogen receptors was determined in an in vitro bioassay with recombinant Chinese hamster ovary (CHO) cells stably co-transfected with the human estrogen receptor α (hERα) or β (hERβ), the rat oxytocin promoter (RO) and the luciferase reporter gene (LUC). […] A more detailed description of the methodology can be found in De Gooyer M. E., Deckers G. H., Schoonen W. G. E. J., Verheul H. A. M. and Kloosterboer H. J., Steroids, Vol. 68, 2003, pp. 21-30.
(§2) ERα/ERβ selectivity is defined as the ratio ERα-potency/ERβ-potency.

For data set [3], the target named is T1, human estrogen receptor α (hERα) (Homo sapiens, UniProt P03372).
T1 sequence (P03372 1-595): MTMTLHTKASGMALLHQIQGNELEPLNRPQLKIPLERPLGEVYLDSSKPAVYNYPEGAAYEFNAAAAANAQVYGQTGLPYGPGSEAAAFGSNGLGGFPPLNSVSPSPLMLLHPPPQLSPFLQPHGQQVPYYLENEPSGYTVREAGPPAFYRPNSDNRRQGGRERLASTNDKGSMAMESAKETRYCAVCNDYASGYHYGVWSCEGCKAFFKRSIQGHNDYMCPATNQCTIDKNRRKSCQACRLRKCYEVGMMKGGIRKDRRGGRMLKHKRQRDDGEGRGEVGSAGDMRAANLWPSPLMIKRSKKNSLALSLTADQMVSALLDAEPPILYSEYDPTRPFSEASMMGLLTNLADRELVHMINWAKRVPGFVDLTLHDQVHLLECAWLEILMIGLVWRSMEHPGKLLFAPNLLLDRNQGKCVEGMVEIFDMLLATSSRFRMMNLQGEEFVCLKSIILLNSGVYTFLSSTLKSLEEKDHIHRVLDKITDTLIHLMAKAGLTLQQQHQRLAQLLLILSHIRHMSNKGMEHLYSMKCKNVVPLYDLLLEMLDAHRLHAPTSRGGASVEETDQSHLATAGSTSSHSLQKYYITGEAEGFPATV
The data set is described as follows: In vitro bioassay of estrogenic agonistic transactivation in recombinant CHO cells (hERα, rat oxytocin promoter, luciferase reporter). In kind it is cell-based. How it is done: as §1, §2

Data set [4] relates to progesterone-induced lordosis behavior in female ovariectomised rats. The data set is described as follows: Facilitation of progesterone-induced lordosis behavior in female ovariectomised rats. In kind it is in vivo, rat. Particulars: oral dosing at 1 mg/kg.day, three days pre-treatment, then progestagen. The text has this: Rat female sexual behavior is hormone dependent. In estrogen-primed female rats progesterone clearly enhances female sexual or lordosis behavior. However, progesterone is not effective in inducing lordosis in ovariectomised females that have not received estrogen (see also J. B. Becker, S. M. Breedlove and D. Crews (Eds.), Behavioral Endocrinology, 1992, pp. 82-84).
Females were pre-treated for three days with test compound followed by treatment with a progestagen on the fourth day. Four hours after progesterone treatment sexual behavior of the female rat was measured in the presence of a male rat by counting the number of lordosis responses during 10 minutes.

Setting [5] is: relative to 17β-estradiol: (EC50 17β-estradiol/EC50 test compound)×100%, CHO cells, luciferase.

human estrogen receptor β (hERβ), sequence (Q92731 whole entry): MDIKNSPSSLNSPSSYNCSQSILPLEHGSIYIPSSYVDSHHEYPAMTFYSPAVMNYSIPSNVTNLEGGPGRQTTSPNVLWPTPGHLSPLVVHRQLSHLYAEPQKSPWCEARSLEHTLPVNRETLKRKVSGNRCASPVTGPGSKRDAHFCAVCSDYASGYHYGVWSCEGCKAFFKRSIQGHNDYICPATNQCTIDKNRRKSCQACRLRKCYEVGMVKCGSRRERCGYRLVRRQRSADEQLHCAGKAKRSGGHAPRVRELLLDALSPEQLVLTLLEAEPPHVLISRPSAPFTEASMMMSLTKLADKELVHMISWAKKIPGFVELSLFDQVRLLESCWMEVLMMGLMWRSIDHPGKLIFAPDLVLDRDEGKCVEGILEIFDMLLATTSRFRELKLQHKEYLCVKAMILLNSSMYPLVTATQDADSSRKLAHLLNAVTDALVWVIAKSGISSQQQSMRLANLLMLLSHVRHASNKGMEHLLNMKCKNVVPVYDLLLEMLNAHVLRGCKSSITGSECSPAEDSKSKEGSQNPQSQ

With `C[C@]12CC[C@@H]3c4ccc(O)cc4CC[C@H]3[C@@H]1CC[C@@H]2O` [Compound Y, 17β-estradiol, reference compound], in data set [1] (200 μg/kg once daily oral), the “Monkey Endometrial profile (scores): Atrophic” value is recorded as 0, the “Monkey Endometrial profile (scores): Follicular” value was 3.6 and the “Monkey Endometrial profile (scores): Luteal” value came to 0.2.
In the case of `C#C[C@]1(O)C[C@@H](C)[C@H]2[C@@H]3[C@H](CC)Cc4cc(O)ccc4[C@H]3CC[C@@]21C` [Compound 8, 7α-ethyl-15β-methyl-19-nor-17α-pregna-1,3,5(10)-trien-20-yne-3,17β-diol], in data set [1] (40 μg/kg once daily oral), the “Monkey Endometrial profile (scores): Atrophic” value was found to be 3.0, the “Monkey Endometrial profile (scores): Follicular” value was determined as 0.0 and the “Monkey Endometrial profile (scores): Luteal” value is recorded as 0.0. For the same molecule, in data set [1] (200 μg/kg once daily oral), the “Monkey Endometrial profile (scores): Atrophic” value was found to be 2.3, the “Monkey Endometrial profile (scores): Follicular” value was found to be 0.5 and the “Monkey Endometrial profile (scores): Luteal” value was found to be 0.2. Further, the “agonist character at the estrogen β-receptor” value in data set [2] (in words) is reported as “partial agonist”. Besides, the “ERβ-efficacy (%)” value in data set [2] (maximal activation relative to maximal activation by 17β-estradiol) is 40%. For the same molecule, in data set [2] (setting [5]), the “ERβ-potency (%)” value worked out at 1.54%. The “ERα/ERβ-selectivity (potency)” value in data set [3] (ratio ERα-potency/ERβ-potency) was determined as 15.2. For the same molecule, the “ERα-potency (%)” value in data set [3] (setting [5]) is reported as 23.45%.
As for `C#CC1(O)CC(C)C2C3C(CC)Cc4cc(OC(=O)C(C)(C)C)ccc4C3CCC21C` (stereo not drawn) [Compound 9a, 3-pivaloyloxy-7α-ethyl-15β-methyl-19-nor-17α-pregna-1,3,5(10)-trien-20-yne-17β-ol], the “in vivo estrogenic activity (facilitation of lordosis)” value in data set [4] is “active estrogenic compounds”.
Regarding `C#C[C@]1(O)CC[C@H]2[C@@H]3CCc4cc(O)ccc4[C@H]3CC[C@@]21C` [Compound X, 17α-ethynyl-17β-estradiol, reference compound], in data set [1] (40 μg/kg once daily oral), the “Monkey Endometrial profile (scores): Atrophic” value was found to be 0, the “Monkey Endometrial profile (scores): Follicular” value is 2.8 and the “Monkey Endometrial profile (scores): Luteal” value was 0.4.
